Where “and” joins values, the source holds several entries; their conditions need not be identical. Identical values can stand only once.
Experiments:
[1] = target: T1, 14-3-3β/CFTRpS753pS768 complex (Homo sapiens, UniProt P13569+P31946); assay: FP assay, 14-3-3β titration at constant compound concentration (apparent KD); format: binding; details: for Polarization: FC 100 uM, peptide 100 nM, listed as FC; for Polarization / FP signal, 14-3-3β titration / FP signal: replicates; for FP signal, 14-3-3β titration / FP signal: compound 100 μM; for Fluorescence polarization signal, 14-3-3β titration: FC-A (100 μM)
T1 construct: His6 (cleaved yes); made in house; peptide synthetic
T1 sequence (P31946 whole entry): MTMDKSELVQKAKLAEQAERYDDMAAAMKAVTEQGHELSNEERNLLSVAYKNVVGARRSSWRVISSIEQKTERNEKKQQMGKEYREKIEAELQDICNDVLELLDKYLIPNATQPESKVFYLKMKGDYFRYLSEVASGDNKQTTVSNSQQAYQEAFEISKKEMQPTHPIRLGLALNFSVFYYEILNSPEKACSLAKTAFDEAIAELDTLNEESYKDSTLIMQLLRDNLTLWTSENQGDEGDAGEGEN
T1 sequence (P13569 747-774 limits assumed): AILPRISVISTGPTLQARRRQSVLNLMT
Experimental: FC-A (100 µM) was added as a positive control and DMSO as the negative control. […] Background polarization was subtracted from all values, n = 3 technical replicates. […] Source data are provided as a Source Data file. […]
The FITC-labeled peptides were dissolved in FP buffer (10 mM HEPES pH 7.4, 150 mM NaCl, 0.1% Tween20, 1 mg/mL BSA) to a final concentration of 100 nM or 10 nM. […] The dilution series were made in 384 Corning Black Round Bottom well plates and their polarization was measured with a Tecan Infinite F500 plate reader (ex. = 485 nm, em. = 535 nm). The method of fitting of the curves was: “log(agonist) vs. response – Variable slope (four parameters)” from GraphPad Prism. The equation is Y = Bottom + (Top-Bottom)/(1 + 10^((LogEC50-X)*HillSlope)).
from the hit validation library.
f the compound, 100 µM FC-A, or both compound and FC-A, 100 µM each. Background polarization was subtracted f
rom all values, n=3 technical replicates.
Source data are provided as a Source Data file.

[2] = target: T2, 3HA-tagged F508del-CFTR in BHK cells (Homo sapiens, UniProt P13569, DEL508-508); assay: CFTR trafficking assay (surface expression); format: cell-based, hamster; details: individual replicates
T2 construct: expressed in transfected cells; host or cells: baby hamster kidney (BHK) cells (Carlile et al. 2007)
T2 sequence (P13569 with tags, fused parts or gaps DEL508-508): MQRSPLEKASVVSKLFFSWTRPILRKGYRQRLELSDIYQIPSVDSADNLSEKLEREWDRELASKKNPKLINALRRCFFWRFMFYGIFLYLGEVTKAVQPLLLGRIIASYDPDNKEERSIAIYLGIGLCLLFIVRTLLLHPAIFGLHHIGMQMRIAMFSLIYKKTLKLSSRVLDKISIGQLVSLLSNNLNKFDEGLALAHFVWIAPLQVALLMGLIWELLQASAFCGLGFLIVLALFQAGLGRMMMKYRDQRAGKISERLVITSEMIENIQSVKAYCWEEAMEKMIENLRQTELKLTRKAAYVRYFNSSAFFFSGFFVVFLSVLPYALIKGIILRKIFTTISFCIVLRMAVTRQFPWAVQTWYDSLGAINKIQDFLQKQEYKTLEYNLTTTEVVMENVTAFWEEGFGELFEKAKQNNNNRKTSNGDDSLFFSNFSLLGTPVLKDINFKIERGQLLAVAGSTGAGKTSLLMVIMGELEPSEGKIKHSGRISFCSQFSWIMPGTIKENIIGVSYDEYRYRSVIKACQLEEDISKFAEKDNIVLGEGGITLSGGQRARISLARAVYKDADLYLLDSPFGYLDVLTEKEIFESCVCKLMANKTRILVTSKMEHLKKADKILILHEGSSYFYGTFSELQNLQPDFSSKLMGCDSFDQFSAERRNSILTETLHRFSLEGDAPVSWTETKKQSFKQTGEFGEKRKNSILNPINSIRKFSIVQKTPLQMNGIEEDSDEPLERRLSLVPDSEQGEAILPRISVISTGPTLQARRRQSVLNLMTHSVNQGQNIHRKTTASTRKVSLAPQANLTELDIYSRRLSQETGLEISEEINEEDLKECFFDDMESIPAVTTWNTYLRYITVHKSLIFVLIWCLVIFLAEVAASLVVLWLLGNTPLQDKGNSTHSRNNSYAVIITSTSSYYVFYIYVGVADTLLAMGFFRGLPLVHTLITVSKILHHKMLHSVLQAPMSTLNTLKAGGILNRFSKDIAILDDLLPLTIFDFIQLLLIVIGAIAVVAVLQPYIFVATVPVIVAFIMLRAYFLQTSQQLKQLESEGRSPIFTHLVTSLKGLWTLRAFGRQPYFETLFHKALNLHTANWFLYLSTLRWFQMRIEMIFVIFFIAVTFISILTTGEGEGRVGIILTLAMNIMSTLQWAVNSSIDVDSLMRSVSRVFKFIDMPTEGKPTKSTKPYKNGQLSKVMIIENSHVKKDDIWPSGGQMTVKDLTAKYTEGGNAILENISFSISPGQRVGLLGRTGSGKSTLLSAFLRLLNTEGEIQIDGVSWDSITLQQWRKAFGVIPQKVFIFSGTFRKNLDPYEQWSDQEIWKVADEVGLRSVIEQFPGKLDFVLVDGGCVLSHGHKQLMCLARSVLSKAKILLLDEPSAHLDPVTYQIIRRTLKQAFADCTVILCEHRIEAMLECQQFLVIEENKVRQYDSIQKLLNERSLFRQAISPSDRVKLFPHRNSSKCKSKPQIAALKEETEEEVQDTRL
Experimental: Twelve (12) validated hit compounds from the initial screening and focused validation library were tested for their effect on F508del-CFTR trafficking. Baby hamster kidney (BHK) cells expressing 3HA-tagged F508del-CFTR were treated for 24 h with 10 μM compound. After fixation of the cells, a combination of mouse monoclonal anti-HA antibody and anti-mouse IgG conjugated with FITC was used to detect F508del-CFTR that had trafficked to the plasma membrane as described previously. […] Additionally, a fluorescence imaging plate reader (FLIPR) Membrane Potential (FMP) assay was performed. This assay measures real-time membrane potential changes associated with ion channel activation and ion transporter proteins. F508del-CFTR expressing BHK cells were incubated for 24 h with 20 μM compound before treatment with the potentiator genistein, FMP dye, and activator forskolin. The fluorescence intensity is thus a measure for the function of the CFTR protein in the plasma membrane of these cells. The F508del-CFTR corrector VX-809 (lumacaftor) and the triple combination Trikafta® were used as positive controls in this assay. […] Another cellular assay was performed with the Ussing Chamber, which detects and quantifies transport of ions across epithelial tissue. F508del-CFTR expressing cystic fibrosis epithelial (CFBE) cells were treated for 18 h with 20 μM CY007424. After forskolin and genistein stimulation, the short-circuit current of the cells was measured.
Fig. 5 Cellular activity of macrocycles stabilizing the 14-3-3/CFTR PPI. a Surface expression of 3HA-tagged F508del-CFTR in BHK cells incubated for 24 h with 10 μM compound and treated with mouse monoclonal anti-HA antibody and anti-mouse IgG conjugated with FITC (n = 4 or n = 3 biological replicates, bars represent the mean). b, c FLIPR Membrane Potential (FMP) assay of F508del-CFTR expressing BHK cells treated for 24 h with the macrocycles (b, n = 6 biological replicates, bars represent the mean) or with CY007424 and/or VX-809 or Trikafta®, with and without CFTR inhibitor INH172 (c, n = 4 biological replicates, bars represent the mean). d Using chamber experiment of F508del-CFTR expressing CFBE cells treated for 18 h with CY007424, VX-809, or Trikafta® or in combinations. CFTR activity is assayed by measurement of short-circuit current of cells after stimulation by forskolin and the potentiator genistein (n = 3 or n = 6 biological replicates, bars represent the mean). Source data are provided as a Source Data file.
The trafficking assay was performed as previously described by Carlile et al.[21]. In brief, 3HA-tagged F508del-CFTR expressing baby hamster kidney (BHK) cells (cells earlier described by Carlile et. al. 2007)[21] were seeded in 96-well plates (Corning half area, black-sided, clear bottom) at 15,000 cells per well. After 24 h incubation at 37 °C, the cells were treated with 10 μM of compound for 24 h (final DMSO concentration 1% v/v). The cells were fixated with 4% paraformaldehyde, washed with PBS, and then blocked with fetal bovine serum (5% in PBS). Mouse monoclonal anti-HA antibody (H9658 Sigma, 1:150 dilution in PBS) was incubated overnight, and, after three washes with PBS, the background fluorescence was measured in a plate reader (488 nm excitation, 510 nm emission). The secondary antibody anti-mouse IgG conjugated with FITC (F5262 Sigma, 1:100 dilution in PBS) was incubated for 1 h, the cells were washed three times with PBS and analyzed in the plate reader again. Background fluorescence was subtracted from the signal, after which the signal was normalized to the DMSO control and wt-CFTR expressing cells.

Structure (SMILES): C=CC(C)(C)OC[C@H]1O[C@H](O[C@@H]2C3=C([C@H](C)COC(C)=O)C[C@H](O)[C@]3(C)/C=C3/[C@@H](COC)CC[C@H]3[C@@H](C)[C@H]2O)[C@H](O)[C@@H](OC(C)=O)[C@@H]1O [FC-A, fusicoccin A, reference compound]
- Polarization ([1]; 14-3-3β 1.95313e-6 M): 98 and 96 and 97
- FP signal, 14-3-3β titration ([1]; 14-3-3β 1.95313e-6 M): 32.3333 and 30.3333 and 31.3333
- FP signal ([1]; 14-3-3β 2.28125e-6 M): 97 and 94 and 86
- Polarization ([1]; 14-3-3β 3.90625e-6 M): 135 and 137
- FP signal, 14-3-3β titration ([1]; 14-3-3β 3.90625e-6 M): 47.3333 (2×) and 44.3333
- FP signal ([1]; 14-3-3β 4.5625e-6 M): 137 and 131 and 124
- Polarization ([1]; 14-3-3β 7.8125e-6 M): 175 and 176
- FP signal, 14-3-3β titration ([1]; 14-3-3β 7.8125e-6 M): 71.3333 and 69.3333 and 64.3333
- FP signal ([1]; 14-3-3β 9.125e-6 M): 171 and 164 and 159
- Polarization ([1]; 14-3-3β 1.5625e-5 M): 212 and 209
- FP signal, 14-3-3β titration ([1]; 14-3-3β 1.5625e-5 M): 98.3333 and 94.3333 (2×)
- FP signal ([1]; 14-3-3β 1.825e-5 M): 202 and 191 and 192
- Polarization ([1]; 14-3-3β 3.125e-5 M): 234 and 235 and 231
- FP signal, 14-3-3β titration ([1]; 14-3-3β 3.125e-5 M): 123.333 and 117.333 and 124.333
- FP signal ([1]; 14-3-3β 3.65e-5 M): 216 and 213 and 212
- Polarization ([1]; 14-3-3β 6.25e-5 M): 246 and 249 and 248
- FP signal, 14-3-3β titration ([1]; 14-3-3β 6.25e-5 M): 146.333 and 138.333 and 142.333
- FP signal ([1]; 14-3-3β 7.3e-5 M): 227 and 226 and 224
- Polarization ([1]; 14-3-3β 0.000125 M): 256 and 254
- FP signal, 14-3-3β titration ([1]; 14-3-3β 0.000125 M): 152.333 and 153.333 and 150.333
- FP signal ([1]; 14-3-3β 0.000146 M): 232 and 230 and 229
- Polarization ([1]; 14-3-3β 0.00025 M): 260 and 261 and 258
- FP signal, 14-3-3β titration ([1]; 14-3-3β 0.00025 M): 165.333 and 161.333 and 167.333
- FP signal, 14-3-3β titration ([1]; 14-3-3β 0.0005 M): 177.333 and 174.333 and 175.333
- Fluorescence polarization signal, 14-3-3β titration ([1]; 14-3-3β concentration 119.2 pM): 3.333 and 5.333
- Fluorescence polarization signal, 14-3-3β titration ([1]; 14-3-3β concentration 238.4 pM): 3.333 and 4.333 and 2.333
- Fluorescence polarization signal, 14-3-3β titration ([1]; 14-3-3β concentration 476.8 pM): 4.333 and 2.333
- Fluorescence polarization signal, 14-3-3β titration ([1]; 14-3-3β concentration 953.7 pM): 4.333 and 6.333
- Fluorescence polarization signal, 14-3-3β titration ([1]; 14-3-3β concentration 6.10352e-8 M): 7.333 and 6.333
- Fluorescence polarization signal, 14-3-3β titration ([1]; 14-3-3β concentration 1.2207e-7 M): 5.333 and 9.333 and 6.333
- Fluorescence polarization signal, 14-3-3β titration ([1]; 14-3-3β concentration 2.44141e-7 M): 9.333 and 10.3333 and 5.333
- Fluorescence polarization signal, 14-3-3β titration ([1]; 14-3-3β concentration 4.88281e-7 M): 9.333 and 12.3333
- Fluorescence polarization signal, 14-3-3β titration ([1]; 14-3-3β concentration 9.76563e-7 M): 18.3333 and 11.3333 and 16.3333
- Fluorescence polarization signal, 14-3-3β titration ([1]; 14-3-3β concentration 1.95313e-6 M): 32.3333 and 30.3333 and 31.3333
- Fluorescence polarization signal, 14-3-3β titration ([1]; 14-3-3β concentration 3.90625e-6 M): 47.3333 and 44.3333
- Fluorescence polarization signal, 14-3-3β titration ([1]; 14-3-3β concentration 7.8125e-6 M): 71.3333 and 69.3333 and 64.3333
- Fluorescence polarization signal, 14-3-3β titration ([1]; 14-3-3β concentration 1.5625e-5 M): 98.3333 and 94.3333
- Fluorescence polarization signal, 14-3-3β titration ([1]; 14-3-3β concentration 3.125e-5 M): 123.333 and 117.333 and 124.333
- Fluorescence polarization signal, 14-3-3β titration ([1]; 14-3-3β concentration 6.25e-5 M): 146.333 and 138.333 and 142.333
- Fluorescence polarization signal, 14-3-3β titration ([1]; 14-3-3β concentration 0.000125 M): 152.333 and 153.333 and 150.333
- Fluorescence polarization signal, 14-3-3β titration ([1]; 14-3-3β concentration 0.00025 M): 165.333 and 161.333 and 167.333
- Fluorescence polarization signal, 14-3-3β titration ([1]; 14-3-3β concentration 0.0005 M): 177.333 and 174.333 and 175.333
- F508del-CFTR surface expression signal (Fig5a) [2]: 1016.54 and 1064.51 and 1045.89
